Test results reported in ChEMBL document CHEMBL3804767, “Discovery and Preclinical Evaluation of BMS-955829, a Potent Positive Allosteric Modulator of mGluR5” (ACS Med Chem Lett, 2016).

Experiments:
Mus musculus [1] = test: Neurotoxicity in C57/BL6 mouse assessed as induction of convulsion at 30 mg/kg, ip; type: toxicity, organism-based; settings: in vivo
[2] = Protein binding in plasma (unknown origin); type: ADME, cell-free; settings: read-out: PPB (converted)
[3] = molecular target: T1, Metabotropic glutamate receptor 5 (Homo sapiens, UniProt P41594)
T1 sequence (P41594 whole entry): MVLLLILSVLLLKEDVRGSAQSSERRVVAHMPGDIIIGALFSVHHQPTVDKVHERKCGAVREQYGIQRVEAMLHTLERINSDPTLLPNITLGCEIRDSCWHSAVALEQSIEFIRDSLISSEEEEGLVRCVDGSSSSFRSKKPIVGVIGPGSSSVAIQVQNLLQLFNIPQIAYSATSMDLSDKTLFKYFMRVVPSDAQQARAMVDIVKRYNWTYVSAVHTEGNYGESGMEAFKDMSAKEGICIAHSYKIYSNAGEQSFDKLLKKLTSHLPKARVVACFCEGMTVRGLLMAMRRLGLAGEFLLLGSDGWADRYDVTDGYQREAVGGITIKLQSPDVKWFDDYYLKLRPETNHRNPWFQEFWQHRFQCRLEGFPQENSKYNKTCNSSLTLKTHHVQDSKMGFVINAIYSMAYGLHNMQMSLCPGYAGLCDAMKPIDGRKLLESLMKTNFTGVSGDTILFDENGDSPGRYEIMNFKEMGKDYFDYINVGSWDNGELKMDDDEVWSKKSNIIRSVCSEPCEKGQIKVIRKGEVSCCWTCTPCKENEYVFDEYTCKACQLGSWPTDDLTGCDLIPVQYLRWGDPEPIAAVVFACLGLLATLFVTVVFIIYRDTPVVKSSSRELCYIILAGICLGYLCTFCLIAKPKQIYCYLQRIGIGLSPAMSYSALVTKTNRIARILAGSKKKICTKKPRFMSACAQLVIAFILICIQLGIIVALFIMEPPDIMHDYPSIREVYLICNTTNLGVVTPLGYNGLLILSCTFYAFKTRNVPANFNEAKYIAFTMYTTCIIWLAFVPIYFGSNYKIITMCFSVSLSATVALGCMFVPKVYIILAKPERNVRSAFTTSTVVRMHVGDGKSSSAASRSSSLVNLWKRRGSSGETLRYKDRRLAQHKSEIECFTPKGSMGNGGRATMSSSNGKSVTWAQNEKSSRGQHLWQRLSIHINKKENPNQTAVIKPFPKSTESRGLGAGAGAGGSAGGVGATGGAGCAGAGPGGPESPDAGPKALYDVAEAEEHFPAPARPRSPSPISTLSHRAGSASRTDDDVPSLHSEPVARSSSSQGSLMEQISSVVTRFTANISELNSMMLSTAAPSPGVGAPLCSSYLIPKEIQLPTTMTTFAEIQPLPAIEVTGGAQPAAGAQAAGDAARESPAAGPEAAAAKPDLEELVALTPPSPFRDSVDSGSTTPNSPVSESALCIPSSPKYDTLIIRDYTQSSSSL
Description: Positive allosteric modulation of human mGlu5A receptor expressed in HEK293 cells coexpressing rat glutamate-aspartate transporter assessed as potentiation of L-glutamate-induced Ca2+ signal incubated for 60 mins by calcium 4 dye based FLIPR assay

[4] = molecular target: T1, Metabotropic glutamate receptor 5; remark: listed apart in the source
Description: Displacement of [3H]MPEPgamma in mGlu5 receptor (unknown origin) incubated for 60 mins by liquid scintillation counting method

[5] = molecular target: T1, Metabotropic glutamate receptor 5; remark: listed apart in the source
Description: Agonist activity at human mGlu5A receptor expressed in HEK293 cells coexpressing rat glutamate-aspartate transporter assessed as induction of Ca2+ release by calcium 4 dye based FLIPR assay

[6] = molecular target: T1, Metabotropic glutamate receptor 5; test: Displacement of [3H]MPEP in mGlu5 receptor (unknown origin) incubated for 60 mins by liquid scintillation counting method
Mus musculus [7] = test: Neurotoxicity in C57/BL6 mouse assessed as induction of convulsion at 3 mg/kg, ip; type: toxicity, organism-based; settings: in vivo
Mus musculus [8] = test: Toxicity in C57/BL6 mouse assessed as death at 3 mg/kg, ip; type: organism-based; settings: in vivo

EC50 [3] [nM] | Ki [4] [nM] | EC50 [5] [nM] | Ki [6] [nM] | Structure (SMILES) | Activity (Mus musculus [1]) | fraction unbound [2] | Activity (Mus musculus [7]) | Activity (Mus musculus [8])
> 3000 | 10 | > 3000 |  | O=C1N[C@H](c2cc(C#Cc3ccccc3)ccn2)[C@@H](c2ccccc2)O1 | Non-toxic | 0.006 |  | 
15 |  | > 30000 | 6.5 | O=C1N[C@H](c2cccc(C#Cc3ccccc3)c2)[C@@H](c2cccc(F)c2)O1 |  |  |  | 
 |  |  |  | O=C1N[C@H](c2cncc(C#Cc3ccccc3)c2)[C@@H](c2cccc(F)c2)O1 |  | 0.004 | Toxic | Toxic
